According to patent US8828438B2, “Pharmaceutical compositions of cholesteryl ester transfer protein inhibitors and HMG-CoA reductase” (Bend Research, Inc., priority 2005, dated 2014):

Test: aqueous solubility
Format: physicochemical
Details: aqueous environment, water; aqueous environments; about 22° C. unless otherwise specified
Excerpt: The CETP inhibitor may be any compound capable of inhibiting the cholesteryl ester transfer protein. Solid amorphous dispersions are particularly useful for CETP inhibitors that have sufficiently low aqueous solubility, low bioavailability or slow rate of absorption such that it is desirable to increase their concentration in an aqueous environment of use. The CETP inhibitor is typically “sparingly water-soluble,” which means that the CETP inhibitor has a minimum aqueous solubility of less than about 1 to 2 mg/mL at any physiologically relevant pH (e.g., pH 1-8) and at about 22° C. Many CETP inhibitors are “substantially water-insoluble,” which means that the CETP inhibitor has a minimum aqueous solubility of less than about 0.01 mg/mL (or 10 μg/ml) at any physiologically relevant pH (e.g., pH 1-8) and at about 22° C. (Unless otherwise specified, reference to aqueous solubility herein and in the claims is determined at about 22° C.) Compositions of the present invention find greater utility as the solubility of the CETP inhibitors decreases, and thus are preferred for CETP inhibitors with solubilities less than about 10 μg/mL, more preferred for CETP inhibitors with solubilities less than about 2 μg/mL, and even more preferred for CETP inhibitors with solubilities less than about 1 μg/mL. […]

CCOC(=O)N1c2ccc(C(F)(F)F)cc2[C@@H](N(Cc2cc(C(F)(F)F)cc(C(F)(F)F)c2)C(=O)OC)C[C@H]1CC [torcetrapib, [2R,4S]-4-[(3,5-bis-trifluoromethyl-benzyl)-methoxycarbonyl-amino]-2-ethyl-6-trifluoromethyl-3,4-dihydro-2H-quinoline-1-carboxylic acid ethyl ester]
solubility: < 0.04 µg/mL
